Each block holds one compound with its values, some of them ahead of it.
What was measured:
in vivo [1] = conditions: Sprague-Dawley, rat, sc, 0.4 mg/kg
Protocol: Sprague-Dawley rats (approximately weighing 120 grams each) were catheterized surgically with jugular and duodenal catheters. Each group of rats, 3-5 animals per group, were given 0.4-2.4 mg/kg of LHRH either as free in solution or incorporated in micelles. As further control, several groups of animals were given a solution of free LHRH subcutaneously at a dose of 0.4 mg/kg of body weight. Blood samples were collected at 0, 20, 40, 60, 90, 120, and 240 minutes following administration of LHRH or controls. The time 0 blood collection was obtained approximately 15 minutes before administration of LHRH formulations. Plasma samples were analyzed by a competitive ELISA assay as follows. Plastic 96 well plates were coated with anti-rabbit immunoglobulins followed by addition of rabbit anti-LHRH and biotinylated-LHRH with sample dilutions. Binding of biotinylated LHRH was assayed by development with BRP-avidin and color development with TMB (tetra-methyl-benzidine). Pharmacokinetic parameters were calculated from the data using WinNonLin software (Pharsight).

in vivo [2] = conditions: Sprague-Dawley, rat
Protocol: Sprague-Dawley rats (approximately weighing 120 grams each) were catheterized surgically with jugular and duodenal catheters. Each group of rats, 4-5 animals per group, were given 0.4-3.6 mg/kg of leuprolide either as free in solution or incorporated in micelles. As further control, several groups of animals were given a solution of free leuprolide subcutaneously. Blood samples were collected at 0, 20, 40, 60, 90, 120, and 240 minutes following administration of leuprolide or controls. The time 0 blood collection was obtained approximately 15 minutes before administration of leuprolide formulations. The amount of leuprolide released into rat serum or leuprolide in formulation was determined by using competitive enzyme-linked immunosorbent assay (ELISA) (Peninsula Laboratories, Inc). The assay system utilizes goat anti-rabbit IgG for solid phase (microwells) immobilization. The test serum or formulation sample was allowed to react simultaneously with the coated antibody, rabbit anti-leuprolide and biotinylated leuprolide. The biotinylated leuprolide competes for the antibody binding sites with standard or the unknown sample leuprolide. After a two-hour (or overnight) incubation at room temperature, unbound biotinylated peptide was removed by washing, and streptavidin-conjugated horseradish peroxidase (SA-HRP) was added and allowed to bind the immobilized rabbit anti-leuprolide/biotinylated leuprolide complex. After washing away excess SA-HRP, 3,3′,5,5′-Tetramethylbenzidine (TMB) was added and incubated for 15 minutes, resulting in the development of a blue color. The addition of Stop Solution stops the reaction and converts the color to yellow. The intensity of the yellow color depends on the quantity of biotinylated leuprolide bound to the immobilized antibody: When more sample leuprolide competes for the limited antibody, less biotinylated leuprolide/SA-HRP can be immobilized, and less color is produced by the substrate.

in vivo [3] = conditions: both, beagle, dog, sc, 0.4 mg/kg
Protocol: Beagle dogs (3 female and 3 male weighing 8-10 kg each) were catheterized surgically with duodenal catheters. For each treatment, the dogs were given 0.4-2.4 mg/kg of leuprolide either in solution or incorporated in micelles. The treatments were administered via the duodenal catheter. For the positive control, the dogs were given a solution of free leuprolide by subcutaneous injection. Blood samples were collected from cephalic catheters or the jugular vein at 0, 15, 30, 45, 60, 90, 120, 240, 360, 480, and 1440 minutes following administration of leuprolide or controls. […] The time 0 blood collection was obtained approximately 10 minutes before administration of leuprolide formulations. The amount of leuprolide released into dog serum was determined by using a competitive enzyme-linked immunosorbent assay (ELISA) from Peninsula Laboratories, Inc. which utilizes goat anti-rabbit IgG for solid phase (microwell) immobilization. The test serum was allowed to react simultaneously with the coated antibody, rabbit anti-leuprolide and biotinylated leuprolide. After two-hour incubation at room temperature, unbound biotinylated peptide was removed by washing, and streptavidin-conjugated horseradish peroxidase (SA-HRP) was added and allowed to bind the immobilized rabbit anti-leuprolide/biotinylated leuprolide complex. After washing away excess SA-HRP, 3,3′5,5′-Tetramethylbenzidine dihydrochloride (B) was added and incubated for 15 minutes, resulting in the development of a blue color. The addition of stop solution stops the reaction and converts the color to yellow. Leuprolide in the samples was quantified by non-linear regression analysis of the standard curve and sample optical density values. Pharmacokinetic parameters are calculated using a pharmacokinetic software with a noncompartmental model.

[4] = Bioavailability of hGH following intraduodenal administration in rats (plasma hGH by ELISA); format: in vivo, Sprague-Dawley rats; conditions: 600 micrograms hGH, FIG. 1
Text: Each group of rats, 3-5 animals per group, received 600 micrograms of human growth hormone in Acconon CC-12 reverse micelle formulation or control formulations consisting of aqueous growth hormone or Acconon CC-12 water reverse micelle. Blood samples were obtained from the jugular catheter at the indicated times after administration. Plasma samples were obtained from the collected blood specimens and analyzed for the presence of hGH by an enzyme-linked immunosorbent assay (ELISA) (Alexon-Trend, BioCheck). The assay system utilizes polyclonal sheep anti-hGH for solid phase (microwells) immobilization, and mouse monoclonal anti-hGH in the antibody-enzyme (horseradish peroxidase) conjugate solution. […] After a 45-minute incubation at room temperature, the sample well was washed to remove unbound enzyme labeled antibody. […] The intensity of the yellow color is directly proportional to the concentration of hGH in the sample.

- AUC(0-inf) (in vivo [1]): 31.5 ng·h/mL
- Cmax (in vivo [1]): 79 ± 51.2 ng/mL
- bioavailability (in vivo [1]): 100%
Compound: CC(C)C[C@H](NC(=O)CNC(=O)[C@H](Cc1ccc(O)cc1)NC(=O)[C@H](CO)NC(=O)[C@H](Cc1c[nH]c2ccccc12)NC(=O)[C@H](Cc1cnc[nH]1)NC(=O)[C@@H]1CCC(=O)N1)C(=O)N[C@@H](CCCNC(=N)N)C(=O)N1CCC[C@H]1C(=O)NCC(N)=O [LHRH solution]

- bioavailability (in vivo [2]): ~0.2%
- AUC(0-inf) (in vivo [2]; 2.4 mg/kg): 5.43 ng·h/mL
- Cmax (in vivo [2]; 2.4 mg/kg): 6.3 ± 5.3 ng/mL
- bioavailability (in vivo [2]; 2.4 mg/kg): 0.23 ± 0.12%
- AUC(0-inf) (in vivo [2]; sc, 0.4 mg/kg): 397 ng·h/mL
- Cmax (in vivo [2]; sc, 0.4 mg/kg): 453 ± 94 ng/mL
- bioavailability (in vivo [2]; sc, 0.4 mg/kg): 100%
- AUC(0-inf) (in vivo [3]): 905 ng·h/mL
- Cmax (in vivo [3]): 412 ± 163 ng/mL
- bioavailability (in vivo [3]): 100%
Compound: CCNC(=O)[C@@H]1CCCN1C(=O)[C@H](CCCNC(=N)N)NC(=O)[C@H](CC(C)C)NC(=O)[C@@H](CC(C)C)NC(=O)[C@H](Cc1ccc(O)cc1)NC(=O)[C@H](CO)NC(=O)[C@H](Cc1c[nH]c2ccccc12)NC(=O)[C@H](Cc1c[nH]cn1)NC(=O)[C@@H]1CCC(=O)N1 [Leuprolide solution, p-Glu-His-Trp-Ser-Tyr-D-Leu-Leu-Arg-Pro-NHC2H5]

Compound: aqueous growth hormone: purified human growth hormone dissolved in water, control formulation
- absorption of hGH [4]: little to no absorption

Source: patent US8535650B2, “Stabilized reverse micelle compositions and uses thereof” (Soligenix, Inc., priority 2001, dated 2013)
